The record followed here is US20250073355A1, “CD44-BINDING PEPTIDE REAGENTS AND METHODS” (THE REGENTS OF THE UNIVERSITY OF MICHIGAN, priority 2021, published 2025).

pKd: −log10 of the molar value. Some results are limits rather than exact numbers.

Series [1] concerns orthotopic human HCC xenograft tumors (SK-Hep1). In words: Photoacoustic imaging of orthotopic human HCC xenograft tumors. The protocol: (§1) Human HCC xenograft tumors were implanted orthotopically in female nude athymic mice. First, ˜5×10^6 SK-Hep1 tumor cells were injected subcutaneously into the hind limb flank. Tumors were then monitored twice a week and allowed to grow to 1-2 cm in diameter for 10-30 days. A small horizontal incision was made below the sternum to expose the liver. The liver was incised with a sharp scalpel horizontally in parallel with the surface of the exposed liver. A piece of the subcutaneous tumor with dimensions of ˜1×1×1 mm^3 was implanted into the incision, and then the site was sealed with absorbable hemostatic material (surgical, Johnson & Johnson). The liver was returned to its original position after confirming hemostasis.
IRDye800-labeled target and control peptides (300 μM in 200 μL PBS) were intravenously injected in mice bearing orthotopical SK-Hep1 tumors. An unlabeled peptide (1.5 mM, 100 μL) was injected 30 min prior to the labeled peptide to compete for binding. ICG (2.46 mg/kg) was injected intravenously as a control. Three-dimensional (3D) images were acquired from 0 to 48 h post injection and reconstructed using PAI tomography system (Nexus 128, Endra) using Iex=774 nm excitation. The photoacoustic signal intensity was measured from the two-dimensional (2D) maximum intensity projection (MIP) images, and the pre-injection images were used for background.
The photoacoustic images were collected to evaluate the time course for peptide uptake, FIG. 14A. […] Indocyanine green (ICG) was also administered (2.46 mg/kg) for comparison.

For series [2], the system named is orthotopic SK-Hep1 xenograft tumors. In words: Whole body fluorescence imaging of orthotopic human HCC xenograft tumors. The protocol:
as §1
Background: In xenograft studies the graft and the host belong to different species.

Series [3] has as its system orthotopic human HCC xenograft tumors. Nature of the series: Intraoperative laparoscopic imaging of orthotopic human HCC xenograft tumors. To be noted: […] post-injection, n=8 mice. In kind it is in vivo. The protocol: A self-build imaging module was attached to standard surgical laparoscope (#49003 AA, HOPKINS II Straight Forward Telescope 0°, Karl Storz, El Segundo, CA, USA) to collect WL and NIR FL images. WL illumination (MCWHL5, Thorlabs, Newton, NJ, USA) and FL excitation source (λex=785 nm, #iBEAM-SMART-785-S, Toptica Photonics) were coupled into the laparoscope. WL and NIR FL images are collected, simultaneously, by a color CCD camera (#GX-FW-28S5C-C, Point Grey Research, Richmond, BC V6W 1 K7, Canada) and a NIR CCD camera (Orca R-2, Hamamatsu Photonics, Hamamatsu City, Shizuoka Pref., Japan) with a laser power of 1.2 mW, respectively.
After completion of imaging, the mice were euthanized, and the livers were resected. A human specific anti-cytokeratin was stained on tumor sections by IHC to further confirm the implanted human derived HCC tumors, FIG. 16H. Overexpression of CD44 was confirmed by IHC and IF, FIG. 161,J. Representative histology (H&E) of the tumor is shown, FIG. 16K.

A further series relates to SK-Hep1 cells (CD44+). In words: Confocal fluorescence microscopy of binding to SK-Hep1 cells. The series is classed as cell-based, human. The protocol:
The cells were washed with PBS 1× and incubated with 4 μM of either target or control peptide for 3 min. The cells were then washed 3× in PBS, fixed with 4% paraformaldehyde (PFA) for 8 min, washed 3× with PBS then incubated with 2% BSA, 1% goat serum in PBS for 30 min. […] Confocal fluorescence images were collected on Leica SP8 confocal microscope using a 63× oil-immersion objective. Fluorescence intensities were quantified using custom MATLAB (Mathworks) software.

The subject of series [4] is SK-Hep1 cells. The procedure: The apparent dissociation constant kd for peptide binding to cells was measured to assess the binding affinity. IRDye800-labeled target peptides were serially diluted in PBS at concentrations of 0, 10, 20, 40, 80, 100, and 200 nM. ˜10^5 SK-Hep1 cells were incubated with the peptides at 4° C. for 1 hour, washed with cold PBS, and the mean fluorescence intensities were measured using flow cytometry. The equilibrium dissociation constant kd=1/ka was calculated by performing a least squares fit of the data to the non-linear equation l=(l0+lmaxka [X])/([…]). l0 and lmax are the initial and maximum fluorescence intensities, corresponding to no peptide and at saturation, respectively, and [X] represents the concentration of the bound peptide. Prism 5.0 software (GraphPad Inc) was used to calculate kd.

Series [5] concerns SK-Hep1 cells. In words: Apparent association time constant. Also noted: species or system human. Particulars: binding to SK-Hep1 cells.
Series [6] concerns CD44 downstream signaling (pAKT, pErk1/2). Nature of the series: Western blot of CD44 downstream cell signaling. Particulars: 4 or 300 μM, 15 min, SK-Hep1 cells. In kind it is cell-based, human. The protocol:
Western blots were performed to evaluate markers for activation of downstream cell signaling, FIG. 11. SK-Hep1 cells were incubated with either hyaluronan (HA) or peptide to evaluate activation of downstream signalling after binding to CD44. […] of low molecular weight HA (GLR001, R&D Systems) was added for 15 min. Peptides are added at concentrations of 4 and 300 μM for 15 min. Anti-CD44 antibody (#ab189524, Abcam), anti-AKT (#4691, Cell Signaling), anti-phospho-AKT (#9271, Cell Signaling), anti-ERK1/2 (#ab17942, Abcam,), anti-phospho-ERK1/2 (#ab50011, Abcam), and anti-β-Actin (#4967, Cell Signaling Technology) were used per manufacturer's instructions.

Series [7] deals with SK-Hep1 cells. In words: MTT cytotoxicity assay. To be noted: up to 200 μg/mL, 24 hours. In kind it is cell-based, human. The protocol: The CD44-binding and control peptides were serially diluted over a range of concentrations and incubated with SK-Hep1 cells seeded in 96-well plates for 24 hours. The media was then removed, and MTT solution (100 μL, 0.5 mg/mL) was added. After 4 hours for incubation, the MTT solution was removed, and 150 μL of DMSO was added to each well to solubilize formazan crystals produced by living cells. Absorbance at Aabs=570 (test) and 630 nm (reference) was measured using a plate reader (VersaMax™ Tunable Microplate Reader). The half-maximum inhibitory concentration (IC50) was measured.
An MTT assay was performed to evaluate the cytotoxicity of CD44 peptides. Peptides were incubated with SK-Hep1 cells in increasing concentrations up to 200 μg/mL for 24 hours.
For orientation: Formazan colour is commonly taken as a measure of viable cells.

A short description of series [8]: Serum stability by analytical RP-HPLC. In kind it is in vitro ADME. Particulars: mouse serum, up to 24 hours, read-out: half-life T1/2 in serum (converted).
Series [9] deals with orthotopic human HCC xenograft tumors and major organs. In words: Peptide biodistribution in tumor-bearing mice. The series is classed as in vivo. An excerpt: The animals were euthanized at peak uptake after intravenous injection of the target and control peptides. Major organs, including heart, spleen, lung, liver, brain, stomach, kidney, intestine, were resected and exposed for white light and fluorescence imaging to measure peptide biodistribution. White light and NIR fluorescence images were collected from the major organs, FIG. 17.

Series [10] can be described thus: Animal necropsy (histology, hematology). The series is classed as in vivo, mice. To be noted: 48 hours after systemic administration. The protocol:
Whole blood was collected for evaluation of hematology and chemistry. Liver, kidney, heart, lung, spleen, stomach, intestine, and brain were harvested and submitted for routine histology (H&E). All slides were evaluated by a liver pathologist.

The next series concerns human HCC specimens. Nature of the series: Peptide validation in human HCC specimens ex vivo (immunofluorescence). The procedure: A tissue microarray (TMA) of human HCC was generated to investigate specific binding by the CD44 peptide to human HCC. Formalin-fixed, paraffin-embedded (FFPE) sections of human liver were obtained from the archived tissue bank in the Department of Pathology. The specimens were washed 3× in xylene for 3 min, 100% ethanol for 3 min, 95% ethanol for 3 min, 70% ethanol for 3 min, rinsed in H2O for 2 min. Antigen unmasking was performed by boiling the slides in 10 mM sodium citrate buffer with 0.05% Tween at pH 6.0 for 15 min. The slides were cooled to RT, and were washed in H2O 3× for 5 min. Blocking was performed with DAKO protein blocking agent (X0909, DAKO) for 1 hour at RT. The peptides at 1 μM concentration were incubated for 10 min at RT. The sections were washed 3× in PBST for 3 min, and incubated with 400 μL at 1:500 dilution of recombinant anti-CD44 (#ab189524, Abcam) overnight at 4° C. The sections were then washed 3× in PBST for 5 min. A 1:500 dilution of AF488-labeled secondary antibody (goat anti rabbit Alexa Fluor®488) was added to each section and incubated for 1 hour at RT. The secondary antibody solution was removed and washed 3× with PBST for 5 min. The sections were then mounted with ProLong Gold reagent containing DAPI (Invitrogen). The fluorescence images of each specimen were collected using confocal microscopy (SP8, Leica), and the mean fluorescence intensity from each image was measured from 3 boxes with dimensions of 20×20 μm^2 using custom MATLAB software. Regions of saturated image intensities were avoided.

Setting [11] is: 1 μM peptide, 10 min, FFPE human sections.

`CC1(C)C(/C=C/C=C/C=C/C=C2\N(CCCCS(=O)(=O)O)c3ccc4ccccc4c3C2(C)C)=[N+](CCCCS(=O)(=O)[O-])c2ccc3ccccc3c21` [ICG, Indocyanine green]: the “T/B ratio, photoacoustic imaging (mean±SD)” value in [1] ([…] post-injection, intravenous, n=5 mice) was 1.39±0.13. Also, in series [1] (female, nude athymic, mouse, in vivo, iv), the “time of peak intensity (uptake) in tumor, photoacoustic” value was over 24 h. Moreover, in series [2] (peak uptake ([…]), intravenous, n=5 mice), the “T/B ratio, whole body fluorescence imaging (mean±SD)” value turned out to be 0.46±0.03. In addition, the “T/B ratio, laparoscopic fluorescence imaging (mean±SD)” value in series [3] amounted to 0.87±0.2.
By pKd is commonly meant the Kd on a negative log10 scale, so that one unit is a factor of ten. Consider `CC(C)C[C@H](NC(=O)[C@H](Cc1ccc(O)cc1)NC(=O)[C@H](CO)NC(=O)[C@H](Cc1c[nH]c2ccccc12)NC(=O)CNC(=O)[C@H](CCCCN)NC(=O)[C@@H](N)Cc1c[nH]c2ccccc12)C(=O)N[C@@H](Cc1c[nH]c2ccccc12)C(=O)N[C@H](C(=O)N[C@@H](CCC(N)=O)C(=O)N[C@@H](CCC(N)=O)C(=O)N[C@@H](C)C(=O)NCC(=O)NCC(=O)NCC(=O)N[C@@H](CO)C(=O)N[C@@H](CSC1CC(=O)N(CCNC(=O)CCCCCN2C(=CC=C3CCCC(C=CC4=[N+](CCCCS(=O)(=O)[O-])c5ccc(S(=O)(=O)O)cc5C4(C)C)=C3Oc3ccc(S(=O)(=O)O)cc3)C(C)(C)c3cc(S(=O)(=O)O)ccc32)C1=O)C(N)=O)[C@@H](C)O` (stereo partly drawn) [WKG*-IRDye800], for which the “fluorescence intensity for binding to SK-Hep1 cells compared with Hep 3B cells” value in the series on SK-Hep1 cells (CD44+) (SK-Hep1 (CD44+) vs Hep 3B (CD44−)) is listed as “Significantly greater”. The “Pearson correlation coefficient ρ of binding co-localization with anti-CD44-AF488” value with SK-Hep1 cells (CD44+) (merged image, SK-Hep1 cell surface) came to 0.81. Further, the “improved binding affinity by comparison with previously reported CD44 peptides” value with SK-Hep1 cells [4] was found to be 3 fold. Also, the pKd in the series with SK-Hep1 cells [4] (read-out: apparent dissociation constant kd, SK-Hep1 cells, 4° C., 1 hour, flow cytometry) was 7.37. Further, in the series with SK-Hep1 cells [5], the “apparent association time constant (time)” value is 6.8 min and the “apparent association time constant k” value was 0.26 min⁻¹. Further, the “effect on CD44 downstream signaling (phosphorylation of AKT and Erk1/2)” value in series [6] is listed as “no effect”. In the series with SK-Hep1 cells [7], the “effect on cell viability (MTT)” value was “no effect on cell viability until the highest concentrations were reached”. Also, the half-life in [8] was 5.1 h. The “time of return to baseline, photoacoustic” value in [1] (post intravenous injection) is about 24 h. For the same molecule, in [2] (post intravenous injection), the “time of return to baseline, whole body fluorescence” value was about 24 h. The “intensity in adjacent normal liver region (mean±SD)” value in series [9] ([…] after intravenous injection) was 0.92±0.45. For the same molecule, the route of clearance result in series [9] (mouse, in vivo) is reported as “primarily renal clearance”. Besides, in [10] (n=3 mice), the “acute toxicity, hematology and chemistry” value was “No acute peptide toxicity was observed”. Moreover, in [10] (normal healthy mice), the “toxicity on histology (H&E) of vital organs” value was “No signs of toxicity”. In the series with human HCC specimens (setting [11]), the “fluorescence intensity, HCC (mean±SD)” value amounted to 1.47±0.50; the “fluorescence intensity, adenoma (mean±SD)” value is listed as 0.93±0.35; the “fluorescence intensity, cirrhosis (mean±SD)” value turned out to be 0.67±0.34; the “fluorescence intensity, normal human liver (mean±SD)” value was found to be 0.56±0.21. Further, the “binding to the cell surface of HCC, immunofluorescence” value in the series with human HCC specimens (human HCC sections) is recorded as “strong binding”.
